In patent US11141452B2, “Bifunctional compounds for relief of pain comprising an opioid receptor agonist moiety and a NK1 receptor antagonist moiety and methods for treating pain” (THE ARIZONA BOARD OF REGENTS ON BEHALF OF THE UNIVERSITY OF …, priority 2014, dated 2021):
Several values for one entry are separate records, joined by “and”; a condition that tells them apart may be missing. Equal entries are not always repeated. Non-standard residues stand in square brackets, D forms with d. Residues, ends and D or L forms follow the SMILES beside them. *: point of attachment. NH(3,5-(CF3)2-benzyl) = FC(F)(F)c1cc(CN*)cc(C(F)(F)F)c1; Dmt = Cc1cc(O)cc(C)c1C[C@H](N)C(=O)O; NMeF = CN[C@@H](Cc1ccccc1)C(=O)O; Orn = NCCC[C@H](N)C(=O)O

Tests used:
MOR = assay: Radioligand binding assay at μ opioid receptor; settings: for Log[IC50±] (μ): log IC50 ± error; for Ki^μ/Ki^δ: ratio of binding affinities MOR/DOR
Procedure: (§1) Binding affinities of these ligands were measured on radioligand binding assays. […] ([43]).

DOR = DOR (Homo sapiens, UniProt P41143); assay: Radioligand binding assay at δ opioid receptor; settings: for Ki: Ki^δ (nM)
Procedure: as §1

hNK1 = target: T1, hNK1 (Homo sapiens, UniProt P25103); assay: hNK1/CHO cell membrane radioligand binding assay ([3H]SP); settings: for Ki: Ki^hNK1 (nM), hNK1/CHO membranes, [3H]SP; for Ki^hNK1/Ki^rNK1: ratio human/rat NK1
T1 construct: expressed in transfected cells; host or cells: CHO
T1 sequence (P25103 whole entry): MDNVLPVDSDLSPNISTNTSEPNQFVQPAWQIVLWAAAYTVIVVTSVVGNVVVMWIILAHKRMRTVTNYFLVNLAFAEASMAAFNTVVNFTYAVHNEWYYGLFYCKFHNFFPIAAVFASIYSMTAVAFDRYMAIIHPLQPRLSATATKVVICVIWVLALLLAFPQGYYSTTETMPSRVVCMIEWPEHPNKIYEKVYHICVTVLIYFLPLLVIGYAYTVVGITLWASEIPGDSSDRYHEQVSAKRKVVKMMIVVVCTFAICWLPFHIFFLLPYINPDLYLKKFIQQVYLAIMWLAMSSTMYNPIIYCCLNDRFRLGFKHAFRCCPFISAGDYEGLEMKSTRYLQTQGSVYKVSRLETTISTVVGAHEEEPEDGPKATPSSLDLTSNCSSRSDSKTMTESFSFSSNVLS

DOR, sequence (P41143 whole entry): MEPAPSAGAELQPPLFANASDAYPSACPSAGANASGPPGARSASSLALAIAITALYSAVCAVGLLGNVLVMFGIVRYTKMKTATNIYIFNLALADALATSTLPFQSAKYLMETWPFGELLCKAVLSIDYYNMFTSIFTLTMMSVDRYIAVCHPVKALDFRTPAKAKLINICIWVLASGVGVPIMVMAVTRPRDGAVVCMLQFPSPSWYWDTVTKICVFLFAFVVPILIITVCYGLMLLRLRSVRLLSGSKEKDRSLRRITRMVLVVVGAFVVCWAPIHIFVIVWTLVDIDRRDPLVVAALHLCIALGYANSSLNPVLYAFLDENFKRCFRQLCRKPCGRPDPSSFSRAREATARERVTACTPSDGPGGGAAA

SMILES | Ki (MOR) | Log[IC50±] (μ) (MOR) | Ki^hNK1/Ki^rNK1 (hNK1) | further results
CC(C)C[C@H](NC(=O)[C@@H]1CCCN1C(=O)[C@@H](CCC(N)=O)NC(=O)[C@H](Cc1ccccc1)NC(=O)CNC(=O)[C@@H](C)NC(=O)[C@@H](N)Cc1ccc(O)cc1)C(=O)N[C@@H](Cc1c[nH]c2ccccc12)C(=O)NCc1cc(C(F)(F)F)cc(C(F)(F)F)c1 [AKG103] | 120 nM and 116 nM | −6.57 ± 0.05 |  | IC50 (DOR): 155 nM; Ki (DOR): 72 nM; Ki (hNK1): 2.1 nM
CSCC[C@H](NC(=O)[C@H](Cc1ccccc1)N(C)C(=O)CNC(=O)[C@@H](C)NC(=O)[C@@H](N)Cc1ccc(O)cc1)C(=O)N1CCC[C@H]1C(=O)N[C@@H](CC(C)C)C(=O)N[C@@H](Cc1c[nH]c2ccccc12)C(=O)NCc1cc(C(F)(F)F)cc(C(F)(F)F)c1 [AKG106] |  |  | 1/7 | 
CSCC[C@H](NC(=O)[C@H](Cc1ccccc1)N(C)C(=O)CNC(=O)[C@@H](C)NC(=O)[C@@H](N)Cc1c(C)cc(O)cc1C)C(=O)N1CCC[C@H]1C(=O)N[C@@H](CC(C)C)C(=O)N[C@@H](Cc1c[nH]c2ccccc12)C(=O)NCc1cc(C(F)(F)F)cc(C(F)(F)F)c1 [AKG107] |  |  | 1/7 | 
Cc1cc(O)cc(C)c1C[C@H](N)C(=O)N[C@H](C)C(=O)N[C@@H](Cc1ccccc1)C(=O)NCC(=O)N[C@@H](Cc1ccc(O)cc1)C(=O)N1CCC[C@H]1C(=O)N[C@@H](CC(C)C)C(=O)N[C@@H](Cc1c[nH]c2ccccc12)C(=O)NCc1cc(C(F)(F)F)cc(C(F)(F)F)c1 [AKG118] (H-[Dmt][dA]FGYPLW-{NH(3,5-(CF3)2-benzyl)}) | 1 nM | −8.65 ± 0.12 | 1/11 | Ki^μ/Ki^δ (MOR): 1/3
CC(C)C[C@H](NC(=O)[C@@H]1CCCN1C(=O)[C@H](CCC(N)=O)NC(=O)[C@H](Cc1ccccc1)N(C)C(=O)CNC(=O)[C@@H](C)NC(=O)[C@@H](N)Cc1ccc(O)cc1)C(=O)N[C@@H](Cc1c[nH]c2ccccc12)C(=O)NCc1cc(C(F)(F)F)cc(C(F)(F)F)c1 [AKG129] | 7 nM | −7.84 ± 0.11 |  | 
Cc1cc(O)cc(C)c1C[C@H](N)C(=O)N[C@H](C)C(=O)NCC(=O)N(C)[C@@H](Cc1ccccc1)C(=O)N[C@@H](CCC(N)=O)C(=O)N1CCC[C@H]1C(=O)N[C@@H](CC(C)C)C(=O)N[C@@H](Cc1c[nH]c2ccccc12)C(=O)NCc1cc(C(F)(F)F)cc(C(F)(F)F)c1 [AKG141] |  |  | 1/10 | 
CC(C)C[C@H](NC(=O)[C@@H]1CCCN1C(=O)[C@H](CCC(N)=O)NC(=O)[C@H](Cc1ccc(F)cc1)NC(=O)CNC(=O)[C@@H](C)NC(=O)[C@@H](N)Cc1ccc(O)cc1)C(=O)N[C@@H](Cc1c[nH]c2ccccc12)C(=O)NCc1cc(C(F)(F)F)cc(C(F)(F)F)c1 [AKG142] | 8 nM | −7.67 ± 0.07 |  | IC50 (DOR): 3.39 nM; Ki (DOR): 2 nM
CC(C)C[C@H](NC(=O)[C@@H]1CCCN1C(=O)[C@H](CCC(N)=O)NC(=O)[C@H](Cc1ccc(F)cc1)N(C)C(=O)CNC(=O)[C@@H](C)NC(=O)[C@@H](N)Cc1ccc(O)cc1)C(=O)N[C@@H](Cc1c[nH]c2ccccc12)C(=O)NCc1cc(C(F)(F)F)cc(C(F)(F)F)c1 [AKG143] | 2 nM | −8.35 ± 0.07 |  | IC50 (DOR): 1.45 nM; Ki (DOR): 0.7 nM; Ki (hNK1): 3.2 nM
Cc1cc(O)cc(C)c1C[C@H](N)C(=O)N[C@H](C)C(=O)NCC(=O)N(C)[C@@H](Cc1ccc(F)cc1)C(=O)N[C@@H](CCC(N)=O)C(=O)N1CCC[C@H]1C(=O)N[C@@H](CC(C)C)C(=O)N[C@@H](Cc1c[nH]c2ccccc12)C(=O)NCc1cc(C(F)(F)F)cc(C(F)(F)F)c1 [AKG144] | 0.5 nM | −8.94 ± 0.07 |  | IC50 (DOR): 0.437 nM; Ki (DOR): 0.2 nM
CC(C)C[C@H](NC(=O)[C@@H]1CCCN1C(=O)[C@H](CCCN)NC(=O)[C@H](Cc1ccccc1)N(C)C(=O)CNC(=O)[C@@H](C)NC(=O)[C@@H](N)Cc1ccc(O)cc1)C(=O)N[C@@H](Cc1c[nH]c2ccccc12)C(=O)NCc1cc(C(F)(F)F)cc(C(F)(F)F)c1 [AKG173] (H-Y[dA]G[NMeF][Orn]PLW-{NH(3,5-(CF3)2-benzyl)}) | 5 nM | −7.95 ± 0.08 |  | Ki^μ/Ki^δ (MOR): 100/1; IC50 (DOR): 501 nM; binding selectivity for DOR over MOR (DOR): 100 times; Ki (DOR): 0.05 nM; Ki (hNK1): 15.5 nM
CC(C)C[C@H](NC(=O)[C@@H]1CCCN1C(=O)[C@H](CCCCN)NC(=O)[C@H](Cc1ccccc1)N(C)C(=O)CNC(=O)[C@@H](C)NC(=O)[C@@H](N)Cc1ccc(O)cc1)C(=O)N[C@@H](Cc1c[nH]c2ccccc12)C(=O)NCc1cc(C(F)(F)F)cc(C(F)(F)F)c1 [AKG174] (H-Y[dA]G[NMeF]KPLW-{NH(3,5-(CF3)2-benzyl)}; N-terminus assumed) | 8 nM | −7.81 ± 0.08 |  | 
Cc1cc(O)cc(C)c1C[C@H](N)C(=O)N[C@H](C)C(=O)N(C)CC(=O)N[C@@H](Cc1ccccc1)C(=O)N1CCC[C@H]1C(=O)N[C@@H](CC(C)C)C(=O)N[C@@H](Cc1c[nH]c2ccccc12)C(=O)NCc1cc(C(F)(F)F)cc(C(F)(F)F)c1 [AKG180, H-Dmt-D-Ala-NMeGly-Phe-Pro-Leu-Trp-NH-Bn(3′,5′-(CF3)2)] |  |  | 1/6 | 
Cc1cc(O)cc(C)c1C[C@H](N)C(=O)N(C)[C@H](C)C(=O)NCC(=O)N[C@@H](Cc1ccccc1)C(=O)N1CCC[C@H]1C(=O)N[C@@H](CC(C)C)C(=O)N[C@@H](Cc1c[nH]c2ccccc12)C(=O)NCc1cc(C(F)(F)F)cc(C(F)(F)F)c1 [AKG181, H-Dmt-D-NMeAla-Gly-Phe-Pro-Leu-Trp-NH-Bn(3′,5′-(CF3)2)] |  |  | 1/5 | 
Cc1cc(O)cc(C)c1C[C@H](N)C(=O)N(C)[C@H](C)C(=O)N(C)CC(=O)N[C@@H](Cc1ccccc1)C(=O)N1CCC[C@H]1C(=O)N[C@@H](CC(C)C)C(=O)N[C@@H](Cc1c[nH]c2ccccc12)C(=O)NCc1cc(C(F)(F)F)cc(C(F)(F)F)c1 [AKG183, H-Dmt-D-NMeAla-NMeGly-Phe-Pro-Leu-Trp-NH-Bn(3′,5′-(CF3)2)] |  |  | 1/7 | 
Cc1cc(O)cc(C)c1C[C@H](N)C(=O)N(C)[C@H](C)C(=O)NCC(=O)N(C)[C@@H](Cc1ccccc1)C(=O)N1CCC[C@H]1C(=O)N[C@@H](CC(C)C)C(=O)N[C@@H](Cc1c[nH]c2ccccc12)C(=O)NCc1cc(C(F)(F)F)cc(C(F)(F)F)c1 [AKG184, H-Dmt-D-NMeAla-Gly-NMePhe-Pro-Leu-Trp-NH-Bn(3′,5′-(CF3)2)] |  |  | 1/40 | 
Cc1cc(O)cc(C)c1C[C@H](N)C(=O)N(C)[C@H](C)C(=O)N(C)CC(=O)N(C)[C@@H](Cc1ccccc1)C(=O)N1CCC[C@H]1C(=O)N[C@@H](CC(C)C)C(=O)N[C@@H](Cc1c[nH]c2ccccc12)C(=O)NCc1cc(C(F)(F)F)cc(C(F)(F)F)c1 [AKG185, H-Dmt-D-NMeAla-NMeGly-NMePhe-Pro-Leu-Trp-NH-Bn(3′,5′-(CF3)2)] |  |  | 1/21 | 
CC(C)C[C@H](NC(=O)[C@@H]1CCCN1C(=O)[C@H](Cc1ccccc1)N(C)C(=O)[C@H](Cc1ccccc1)NC(=O)[C@@H]1CCCN1C(=O)[C@@H](N)Cc1ccc(O)cc1)C(=O)N[C@@H](Cc1c[nH]c2ccccc12)C(=O)NCc1cc(C(F)(F)F)cc(C(F)(F)F)c1 [AKG224, H-Tyr-Pro-Phe-NMePhe-Pro-Leu-Trp-NH-Bn(3′,5′-(CF3)2)] (H-YPF[NMeF]PLW-{NH(3,5-(CF3)2-benzyl)}) |  |  | 1/10 | 
